Measurements taken from patent US10155985B2, “Evaluation of eosinophilic esophagitis” (CHILDREN'S HOSPITAL MEDICAL CENTER, priority 2004, dated 2018).

Experiments:
eosinophilic esophagitis = settings: cited from earlier work
EE transcriptome = EE transcriptome of EE patients after fluticasone propionate treatment; format: in vivo, human; settings: EE patients treated; FIG. 6
Description: The data were analyzed by cluster analysis and ordered (standard correlation (A) and distance (B)) using Genespring software. […] Each column represented a separate individual and each line a gene. RNA from each patient was subjected to chip analysis using Affymetrix Human Genome U133 GeneChip plus 2.
In one embodiment, the EE transcriptome was used to evaluate EE patients pre- and post-treatment regimens.
This group of 13 non-responsive genes is SEQ ID NOS. 6, 35, 43, 61, 129, 1358, 1441, 1515, 1538, 1584, 1615, 1618, and 1620. Evaluation of these genes provides a marker of past, present, and/or future active disease, especially in the absence of overt disease. […] Thus, these 13 genes can be used to evaluate a patients propensity to EE, particularly in the absence of clinical or physical symptoms of EE or microscopic findings typical of EE. […] These 13 genes can be used to evaluate EE in an asymptomatic population or when past EE is suspected in a non-active EE individual at the time of endoscopy.

[1] = tested on: esophageal epithelial cells; experiment: Transcriptome of esophageal epithelial cells stimulated with IL-13, compared to the EE transcriptome; format: cell-based
Source text: In one embodiment, the EE transcriptome was compared to transcriptomes in cell/tissues that had been treated with one or more compounds potentially involved with and/or efficacious against EE. By comparing the EE transcriptome to the transcriptome of, e.g., a simple in vitro or ex vivo model of a particular compound, one can assess the percentage of genes that are dysregulated in EE due to that particular compound.
For example, in ex vivo or in vitro models, a compound was used to stimulate an esophageal cell type.

| Compound | effect on EE disease (eosinophilic esophagitis; Gastroenterology 131 (2006) 1381) | effect on EE gene dysregulation (eosinophilic esophagitis; J. Allergy Clin. Immunol. 120 (2007) 1292, U.S. Ser. No. 61/118,981) | number of EE transcriptome genes normalized by treatment (EE transcriptome) [genes/1620 genes] | number of EE transcriptome genes resistant to treatment (EE transcriptome) [genes/1620 genes] | share of the EE transcriptome resistant to treatment (EE transcriptome) | share of the genes of the EE transcriptome potentially due to stimulation of esophageal epithelial cells [1] [%] |
| --- | --- | --- | --- | --- | --- | --- |
| CCC(=O)O[C@]1(C(=O)SCF)[C@H](C)C[C@H]2[C@@H]3C[C@H](F)C4=CC(=O)C=C[C@]4(C)[C@@]3(F)[C@@H](O)C[C@@]21C [fluticasone propionate] | induce EE disease remission | reverse EE gene dysregulation | 1605 | 13 | less than 1% | – |
| interleukin 13 [IL-13] | – | – | – | – | – | 20 |
